Laboratory results reported in PMC4961401 (PLoS ONE, 2016).
“Also recorded” adds a separate entry of the source. Like-named read-outs stand apart in the source and are kept apart here.

Assays:
Src = assay: Western blot of Src activation (p-Src); type: cell-based, human; settings: A549 cells, 50 nM
Description: (§1) Western blot assays were conducted as described previously. Briefly, the cellular protein samples were denatured by mixing with equal volume of 2 × sample loading buffer and then boiling at 100°C for 5 min. An aliquot (50 μg as protein) of the supernatant was loaded onto a 12% SDS gel, separated electrophoretically, and transferred to a Nitrocellulose membrane (Bio-Rad). After the membrane was incubated with 10 mM TBS with 20% Tween 20 and 5% dehydrated skim milk to block nonspecific protein binding, the membrane was incubated with primary antibodies overnight at 4°C. The primary antibodies used for detection of α1 and α3 subunit of Na+,K+-ATPase were rabbit polyclonal antibody against human ATP1A1 (55187, Proteintech, 1:1000) and ATP1A3 (sc-374050, Santa Cruz Biotechnology, 1:1000), respectively. Other primary antibodies including rabbit polyclonal antibody against human Src (#2109S, 1:1000), phosphor-Src(Tyr416) (#6943S, 1: 1000); PI3K p85 (#4257P, 1:1000), phosphor-PI3K p85(Tyr458)/p55(Tyr199) (#4228P, 1: 600), Akt (#9272, 1:1000), phosphor-Akt(Ser473) (#4060S, 1:800), Bax (#2772S, 1:1000), Pro-caspase-9 (#9502S, 1:800), Caspase-3 (#9662S, 1:800); PARP (#9542, 1:1000) and GAPDH (#2118, 1:1000) were all purchased from Cell Signaling Technology. After TBS washes, blots were then incubated with HRP-linked goat anti-rabbit IgG (#7074, 1:1000) secondary antibody for 2 h at room temperature at a 1:1000 dilution and then visualized using chemiluminescence (Pierce Biotechnology, Rockford, IL, USA).

[1] = target: recombinant extracellular portion of human Na+/K+-ATPase α3 subunit (Homo sapiens, UniProt P13637); assay: SPR (Biacore 3000) binding, α3 subunit
Chain of recombinant extracellular portion of human Na+/K+-ATPase α3 subunit (P13637 with tags, fused parts or gaps): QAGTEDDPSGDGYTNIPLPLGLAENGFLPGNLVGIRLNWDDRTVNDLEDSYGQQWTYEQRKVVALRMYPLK
Description: (§2) The recombinant extracellular portion of human Na+/K+-ATPase α1 subunit (M1-M2, M3-M4, M5-M6, M7-M8 and M9-M10) was expressed as a His-fusion protein using Escherichia coli, and purified by affinity chromatography. […] The BamH I-Hind III fragment of the gene was subcloned into a pET-32b expression vector (Novagen) and transformed into E. coli BL21 (DE3) cells (Novagen). The BL21 transformants were cultivated in LB medium with ampicillin to an A600 nm of 0.8 at 37°C. Expression was induced by adding isopropyl β-D-thiogalactopyranoside (IPTG) to a final concentration of 10 mM, and incubated overnight at 20°C. The fusion protein containing a His-tag was isolated from the bacterial lysates by Ni^2+-chelation affinity chromatography using a Bio-Scale™ Mini Profinity™ IMAC Cartridge (Bio-Rad). Finally, the recombinant protein was desalted using a Bio-Scale™ Mini Bio-Gel P-6 Desalting Cartridge (Bio-Rad). The recombinant extracellular portions of the α2 and α3 subunits of human Na+/K+-ATPase were also expressed and purified using similar methods.
(§3) Briefly, for the SPR assay, the α1, α2 or α3 subunit protein was immobilized on a CM5 sensor chip as a ligand with N-ethyl-N’-(3-dimethylaminopropyl) carbodiimide (EDC) and N-hydroxysuccinimide (NHS) according to standard primary amine-coupling procedures. […] HBS-EP (10 mM HEPES, 150 mM NaCl, 3 mM EDTA, and 0.005% (v/v) surfactant P20, pH 7.4) was used as the running buffer. The equilibration of the baseline was performed by a continuous flow of HBS-EP through the chip surface for 1 to 2 h. The Biacore data were collected at 25°C with HBS-EP as the running buffer at a constant flow of 30 μL/min. […] The binding responses were recorded continuously in response units (RU) at a frequency of 1 Hz in sensorgrams and presented as a function of time.

NCI-H522 cells = assay: MTT cell proliferation assay, NCI-H522; type: cell-based; settings: Homo sapiens; NCI-H522, 72 h treatment; read-out: IC50 values, inhibiting proliferation
Description: (§4) The human lung cancer A549, NCI-H460, NCI-H522 and NCI-H1299 cell lines were purchased from the Cell Resource Center of Shanghai Institutes for Biological Sciences, Chinese Academy of Sciences (Shanghai, P.R. China).
(§5) Cell proliferation was assessed using a colorimetric MTT assay as described previously [10]. […] After treatment, the viability of cells was evaluated by checking the absorbance at 570 nm.

[2] = target: recombinant extracellular portion of human Na+/K+-ATPase α2 subunit (Homo sapiens, UniProt P50993); assay: SPR (Biacore 3000) binding, α2 subunit
Chain of recombinant extracellular portion of human Na+/K+-ATPase α2 subunit (P50993 with tags, fused parts or gaps): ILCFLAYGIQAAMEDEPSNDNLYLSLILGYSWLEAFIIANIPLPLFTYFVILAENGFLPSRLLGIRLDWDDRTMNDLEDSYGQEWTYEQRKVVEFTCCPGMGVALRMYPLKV
Description: as §2, §3

in vivo = settings: ICR, mouse, ip
Description: (§6) Therefore, totally 180 mice were used in the study of acute toxicity. […] During the 3 h observation period and other monitoring time periods, animals found in a moribund condition (head and body lying flat on cage bedding with little or no response to stimuli) and animals showing severe pain or severe distress (agonal breathing, intermittent gasping or both) were humanely killed. […] At the end of the experiment, all surviving animals were euthanized by CO2 inhalation. […] The LD50 value was calculated according to the Bliss method.

caspase-3 = assay: Caspase-3 activity assay (Ac-DEVD-pNA); type: cell-based, human; settings: A549 cells, 24 h, different concentrations
Description: The activity of caspase-3 was determined using a caspase-3 activity assay kit (C1115, Beyotime Biotechnology, Shanghai, China) according to the manufacturer's instructions. Briefly, after treatment with BF or BF211 at different concentrations for 24 h, the A549 cells were collected, washed with PBS and incubated with lysis buffer on ice for 15 min. After centrifugation at 2,000 g for 15 min at 4°C, the cell lysates were collected, and their protein concentrations were determined using the A280 method with a UV-Vis Spectrophotometer Q5000 (Quawell Technology, San Jose, CA, USA). Cell lysates (50 μg protein) were then added to reaction buffer containing the caspase-3 substrate Ac-DEVD-p-nitroanilide (2 mM) in 96-well microtiter plates and incubated at 37°C for 4 h. The caspase-3 activity in the samples was quantified by detecting the release of p-nitroanilide from Ac-DEVD-p-nitroanilide with a microplate spectrophotometer at 405 nm. The caspase-3 activity was expressed as the fold of enzyme activity in comparison with the control.

ICR mice [3] = settings: single dose i.p., Bliss method
Description: as §6

A549 cells [4] = assay: MTT cell proliferation assay, A549; type: cell-based; settings: Homo sapiens, read-out: IC50, cell viability (MTT)
Description: as §4, §5

[5] = system: porcine cortex Na+/K+-ATPase; assay: Na+/K+-ATPase activity (Pi liberated from ATP); type: biochemical; settings: for inhibition of the activity of porcine cortex Na+/K+-ATPase: different concentrations, 1 h incubation
Description: The activity of Na+/K+-ATPase was determined by measuring the amount of inorganic phosphate (Pi) liberated from ATP, as described previously. Briefly, a commercial Na+/K+-ATPase from porcine cerebral cortex (Sigma-Aldrich, USA) was incorporated into a reaction mixture containing 1 mM ATP, 5 mM MgCl2, 80 mM NaCl, 20 mM KCl, and 40 mM Tris-HCl (pH 7.8). The enzymatic reaction was terminated by adding trichloroacetic acid after the incubation period (1 h). After centrifugation, the supernatant was diluted with deionized water and then the color development reagent provided by the QuantiChrom™ Phosphate Assay Kit (BioAssay Systems, USA) was added. After 30 min of incubation at room temperature, the color intensity was measured at 620 nm on GENIOS reader (TEACAN, Switzerland). The Na+/K+-ATPase energy transducing activity was expressed as μmol Pi liberated from ATP by 1 mg of Na+/K+-ATPase in 1 h.

[6] = target: recombinant extracellular portion of human Na+/K+-ATPase α1 subunit (Homo sapiens, UniProt P05023); assay: SPR (Biacore 3000) binding, α1 subunit
Description: as §2, §3

NCI-H1299 cells = assay: MTT cell proliferation assay, NCI-H1299; type: cell-based; settings: Homo sapiens; NCI-H1299, 72 h treatment; read-out: IC50 values, inhibiting proliferation
Description: as §4, §5

A549 cells [7] = assay: Free intracellular Ca2+ level (Fluo-3 AM, flow cytometry); type: cell-based, human; settings: 50 nM
Description: The level of intracellular free Ca2+ in A549 cells was determined using the fluorescent dye Fluo-3 AM (S1056, Beyotime Biotechnology, Shanghai, China), which can cross the cell membrane and be cleaved into Fluo-3 by intracellular esterase. […] After being exposed to 50 nM BF or BF211 for 0.5, 1, 10, 30, 60 and 180 min, the cells were harvested, washed twice with PBS, and then incubated with Fluo-3 AM (5 μM) in the dark at 37°C for 1 h. After washing twice with PBS to remove the remaining extracellular probe, the cells were submitted to flow cytometric analysis with an excitation wavelength of 488nm. The quantification was conducted using the FlowJo software program based on the mean values of the peak fluorescent intensity.

A549 tumor xenografts = assay: Human A549 tumor xenograft in nude mice; type: in vivo, Balb/c-nu-nu mice; settings: i.p., qd
Description: Male nude immunodeficient Balb/c-nu-nu mice, aged 6–7 weeks were purchased from the Shanghai Experimental Animal Center and housed in accordance with protocols approved by the Shanghai Institute of Materia Medica, Chinese Academy of Sciences. Generally, on day 0, A549 cells (8×10^6 cells) suspended in 0.1 mL of PBS were mixed with 0.1 mL Matrigel basement membrane matrix (BD Biosciences) and then inoculated s.c. in the right flank of each mouse. Tumors were allowed to reach 100–300 mm^3 in size before treatments were adminstered. In the animal experiment, the tumor size was measured every 3–4 days using calipers and the tumor volume was calculated using the standard formula, width^2×length/2. Body weight was measured daily.
Two experiments using nude mice with A549 tumor xenografts were conducted. In the first experiment, we tried to compare the anti-cancer effects of BF and BF211 at the same concentrations. Briefly, 12 days after inoculation, the mice were randomly divided into 6 groups (6 mice in each group) and began treatment with the vehicle control (natural saline, i.p., qd); a positive control (rapamycin, 10 mg/kg, i.v., once a week); BF at 0.8 mg/kg, i.p., qd; BF at 0.4 mg/kg for 7 days, which was then increased to 1.6 mg/kg for 9 days, i.p., qd; BF211 at 0.8 mg/kg, i.p., qd; BF211 at 0.4 mg/kg for 7 days, which was then increased to 1.6 mg/kg for 9 days, i.p., qd. In the second experiment, the anti-cancer effects of BF211 were determined at higher concentrations. Briefly, 15 days after inoculation, mice were randomly divided into 5 groups (10 mice in each group) and started treatment with the vehicle control (i.p., qd); a positive control (rapamycin, 10 mg/kg, i.v., once a week); BF211 at 2 mg/kg, i.p., qd; BF211 at 4 mg/kg, i.p., qd; BF211 at 6 mg/kg, i.p., qd. No mice died during this experimental period, and all animals were euthanized by CO2 inhalation at the end of the experiment.

NCI-H460 cells = assay: MTT cell proliferation assay, NCI-H460; type: cell-based; settings: Homo sapiens, NCI-H460, 72 h, read-out: IC50 values, inhibiting proliferation
Description: as §4, §5

tumor cell lines = system: tumor cell lines; set-up: method as in PMID 26827628; settings: broad spectrum of tumor cell lines; ref [8]; cited from earlier work
caspase-3, PARP = assay: Western blot of caspase-3 activation and PARP cleavage; type: cell-based, human; settings: A549 cells, 24 h, different concentrations
Description: as §1, with “After TBS washes, blots were then incubated with HRP-linked goat anti-rabbit IgG (#7074, 1:1000) secondary antibody for 2 h at room temperature at a 1:1000 dilution and then visualized using chemiluminescence (Pierce Biotechnology, Rockford, IL, USA).” left out

A549 cells [8] = assay: Annexin V/PI flow cytometry analysis of apoptosis; type: cell-based, human; settings: 24 h treatment
Description: Flow cytometric analysis of the level of apoptosis was conducted using Alexa Fluor 488 Annexin V & PI /Dead Cell Apoptosis Kit (Invitrogen) according to the manufacturer’s instructions. Briefly, after the 24 h treatment with BF or BF211 at different concentrations, the cells were collected, washed with PBS and resuspended in binding buffer. Then, the cells were incubated with Annexin V-FITC and propidium iodide for 15 min in the dark at room temperature, and flow cytometric analysis was conducted. Data analysis was performed with the CellQuest software.

ICR mice [9] = settings: i.p., ref [14]; cited from earlier work
[10] = concentrations less than 2 mg/kg (0.8 mg/kg, or 0.4 then 1.6 mg/kg)

SMILES: C[C@]12CC[C@H](OC(=O)NC3CCNCC3)C[C@H]1CC[C@@H]1[C@@H]2CC[C@]2(C)[C@@H](c3ccc(=O)oc3)CC[C@]12O [BF211]
- level of phosphorylated Src (p-Src) (Src; 1 h after treatment): significant increase
- level of phosphorylated Src (p-Src) (Src; 3 h after treatment): significant increase
- kon ([1]; 25°C, 1:1 Langmuir model, read-out: Association (ka)): 30700 M⁻¹ s⁻¹
- koff ([1]; 25°C, 1:1 Langmuir model, read-out: Dissociation (kd)): 0.116 s⁻¹
- Kd ([1]; KD = kd/ka, read-out: Equilibrium dissociation (KD)): 3780 nM
- IC50 (NCI-H522 cells): 48.3 ± 0.69 nM
- kon ([2]; read-out: Association (ka)): 9820 M⁻¹ s⁻¹
- koff ([2]; read-out: Dissociation (kd)): 0.0441 s⁻¹
- Kd ([2]; α2, SPR, KD = kd/ka, read-out: Equilibrium dissociation (KD)): 4490 nM
- LD50 (in vivo; female): 18.2 mg/kg
- LD50 (in vivo; male): 14.8 mg/kg
- enzyme activity of caspase-3 (caspase-3): significantly stronger than that of BF
- LD5 (95% confidence) (ICR mice [3]; female mice): 12.03 mg/kg (10.04~14.41 mg/kg)
- LD95 (95% confidence) (ICR mice [3]; female mice): 27.55 mg/kg (22.56~33.66 mg/kg)
- LD5 (95% confidence) (ICR mice [3]; male mice): 9.52 mg/kg (7.81~11.61 mg/kg)
- LD95 (95% confidence) (ICR mice [3]; male mice): 22.85 mg/kg (18.89~27.64 mg/kg)
- IC50 (A549 cells [4]; 24 h treatment): 6.76 ± 0.41 nM
- IC50 (A549 cells [4]; 48 h treatment): 4.01 ± 2.68 nM
- inhibition of Na+/K+-ATPase activity compared with BF ([5]; at some concentrations, such as 0.1 μM): slightly weaker than BF
- inhibition of the activity of porcine cortex Na+/K+-ATPase [5]: concentration-dependent
- kon ([6]; read-out: Association (ka)): 17700 M⁻¹ s⁻¹
- koff ([6]; read-out: Dissociation (kd)): 0.0526 s⁻¹
- Kd ([6]; α1, SPR, KD = kd/ka, read-out: Equilibrium dissociation (KD)): 2960 nM
- IC50 (NCI-H1299 cells): 40.1 ± 4.04 nM
- time of another (second) peak of intracellular Ca2+ level (A549 cells [7]): 1800 s
- time of peak intracellular Ca2+ level (A549 cells [7]): 0.5 min
- effect on tumor growth (A549 tumor xenografts; 6 mg/kg): almost totally blocked; also recorded: almost totally inhibited
- effect on growth of tumor xenografts (A549 tumor xenografts; 2, 4, and 6 mg/kg): concentration-dependent inhibitive effects
- effect on growth of tumor xenografts (A549 tumor xenografts; 4 or 6 mg/kg): strongly inhibited
- effect on tumor growth (A549 tumor xenografts; [10]): weak inhibitive effects
- IC50 (NCI-H460 cells): 68 ± 6.91 nM
- IC50 values, anticancer activities (tumor cell lines): nanomolar level
- activation of caspase-3 and cleavage of PARP (caspase-3, PARP): stronger than that of BF at high concentrations
- induction of apoptosis (A549 cells [8]): more strongly induced apoptosis than BF

SMILES: C[C@]12CC[C@H](O)C[C@H]1CC[C@@H]1[C@@H]2CC[C@]2(C)[C@@H](c3ccc(=O)oc3)CC[C@]12O [BF, Bufalin, reference compound]
- level of phosphorylated Src (p-Src) (Src; 1 h after treatment): significant increase
- IC50 (NCI-H522 cells): 98.7 ± 2.76 nM
- enzyme activity of caspase-3 (caspase-3): increase in the activity of caspase-3
- IC50 (A549 cells [4]; 48 h treatment): 10.2 ± 1.01 nM
- inhibition of the activity of porcine cortex Na+/K+-ATPase [5]: concentration-dependent
- IC50 (NCI-H1299 cells): 88.3 ± 11.9 nM
- time of peak intracellular Ca2+ level (A549 cells [7]): 0.5 min
- effect on tumor growth (A549 tumor xenografts; [10]): weak inhibitive effects
- IC50 (NCI-H460 cells): 114 ± 11.2 nM
- LD50 (ICR mice [9]): 2.2 mg/kg
- activation of caspase-3 and cleavage of PARP (caspase-3, PARP): could induce the activation of caspase-3 and the cleavage of PARP
- induction of apoptosis (A549 cells [8]): could induce apoptosis
